# Source: PMC9386913 (Arthritis Research & Therapy, 2022)
# Experiments:
# LPS-induced TNF = tested on: LPS-induced TNF; design: method as in PMID 29549113; conditions: mouse model of NOMID, up to 4 weeks after dosing; cited from earlier work
# TNF = tested on: TNF; design: method as in PMID 26904383; conditions: similar assay and clinical study design; no reference printed, BCT197 paper is ref 53; cited from earlier work
# THP-1 cells = test: In vitro tachyphylaxis model: daily treatment of THP-1 cells, LPS-stimulated TNF; conditions: up to 14 days, 0.1 or 1 μM CC-99677 or 1 μM p38 inhibitors
# [1] = tested on: c-Jun N-terminal kinase (JNK); conditions: THP-1 cells, macrophages, and synoviocytes; cited from earlier work
smiles,measurement,setting,value
Cc1cnc(-c2ccnc(C(C)(C)O)n2)cc1-n1c(C)cc(OCc2ncc(F)cc2F)c(Cl)c1=O [ATI-450],Inhibition of LPS-induced TNF,LPS-induced TNF,showed inhibition of LPS-induced TNF for up to 4 weeks after dosing
Cc1ccc(C(=O)NC2CC2)cc1-n1ncc(C(=O)c2cccc(C#N)c2)c1N [BCT197],Sustained TNF inhibition over treatment period,TNF,loss of effect
Cc1ccc(-n2nc(C(C)(C)C)cc2NC(=O)Nc2ccc(OCCN3CCOCC3)c3ccccc23)cc1 [BIRB-796],LPS-stimulated TNF production under continued daily treatment,THP-1 cells,"beginning on day 9, loss of TNF inhibitory effect"
CCCNC(=O)c1cn2ncnc(Nc3cc(C(=O)NC4CC4)ccc3C)c2c1C [BMS-582949],LPS-stimulated TNF production under continued daily treatment,THP-1 cells,"beginning on day 9, loss of TNF inhibitory effect"
O=C(CO)N1CCC(c2[nH]nc(-c3ccc(Cl)cc3)c2-c2ccncn2)CC1 [CDD-111],Inhibition of LPS-induced TNF,LPS-induced TNF,did not
C[S+]([O-])c1ccc(-c2nc(-c3ccncc3)c(-c3ccc(F)cc3)[nH]2)cc1 (centres unmarked) [SB203580],Activation of c-Jun N-terminal kinase (JNK) upon treatment,[1],activation of c-Jun N-terminal kinase (JNK)
C[C@@H]1CN(Cc2ccc(F)cc2)[C@@H](C)CN1C(=O)c1cc2c(C(=O)C(=O)N(C)C)cn(C)c2cc1Cl [SCIO-469],LPS-stimulated TNF production under continued daily treatment,THP-1 cells,"beginning on day 9, loss of TNF inhibitory effect"
O=c1ncn2nc(Sc3ccc(F)cc3F)ccc2c1-c1c(Cl)cccc1Cl [VX-745],Activation of c-Jun N-terminal kinase (JNK) upon treatment,[1],activation of c-Jun N-terminal kinase (JNK)
